IC50 data for 15 compounds are collected here from patent US20170000749A1, “Methods for Treating Cognitive Disorders Using Inhibitors of Histone Deacetylase” (Forum Pharmaceuticals, Inc., priority 2008, published 2017).

The test system of assay [1] is HDAC activity in primary mouse cortical cultures. In words: Whole-Cell Histone Deacetylase (HDAC) Inhibition Assay in Primary Mouse Cortical Cultures. The following applies: whole-cell (WC), mouse cortical neurons, read-out: HDAC Inhibition (IC50 μM) WC mouse cortical neurons. It counts as cell-based. In a few lines:
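Primary neocortical neurons from E17 Balb/C mouse embryos were plated at 50000 cells/well and treated at DIV9 with ten-point DMSO dilutions for 16-18 h at 37° C, in triplicate. BOC-Lys(Ac)-AMC substrate was then added for 1 h. Fluor de Lys developer containing 1 uM TSA produced a fluorophore, which was read.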

In assay [2] the target is one or more of HDAC-1, HDAC-2, HDAC-3, HDAC-4, HDAC-5, HDAC-6, HDAC-7, HDAC-8, HDAC-9, HDAC-10 and HDAC-11. In words: Inhibition of Histone Deacetylase Enzymatic Activity (Boc-Lys(Ac)-AMC substrate, Fluor-de-Lys developer). The class given is biochemical. The conditions noted are these: read-out: HDAC Inhibition (IC50 μM) HDAC Enzyme. The protocol:
The following protocol is used to assay the compounds of the disclosure.
The mixture is pre-incubated for 5 minutes at room temperature. The reaction is started by bringing the temperature to 37° C. and adding 16 μl substrate. Total reaction volume is 50 μl.
In the Tables 8, 9 and 10, A≦0.05 μM; 0.05 μM<B≦0.1 μM; 0.1 μM<C≦1 μM; and 1 μM<D≦10 μM.

Each structure is given as a SMILES string. Where two headings read alike, the source gives them in different places.

The term IC50 denotes the concentration at which inhibition is half-maximal. Take `COc1cccc(N2CC3CC2CN3c2ccc(C(=O)NO)cc2)c1` (stereo not drawn) [N-hydroxy-4-(5-(3-methoxyphenyl)-2,5-diazabicyclo[2.2.1]heptan-2-yl)benzamide]: the IC50 in assay [1] (Table 9) was 1 to 5 µM; in assay [2] (Table 9), 0.1 to 1 µM.

For the compound `Cc1cccc(N2CC3CC2CN3c2ccc(C(=O)NO)cc2)c1` (stereo not drawn) [N-hydroxy-4-(5-m-tolyl-2,5-diazabicyclo[2.2.1]heptan-2-yl)benzamide], the figures for the IC50 in assay [1] (Table 9) and in assay [2] (Table 9) were 1 to 5 µM and 0.1 to 1 µM, respectively.

`CN1c2ccccc2Oc2ccccc2C1c1ccc(C(=O)NO)cc1` (stereo not drawn) [N-hydroxy-4-(10-methyl-10,11-dihydrodibenzo[b,f][1,4]oxazepin-11-yl)benzamide]: the figures for the IC50 in assay [1] (Table 8) and in assay [2] (Table 8) were 5 to 15 µM and 0.1 to 1 µM, respectively.

For `O=C(NO)c1ccc(N2C(=O)c3ccccc3Oc3ccccc32)cc1` [N-hydroxy-4-(11-oxodibenzo[b,f][1,4]oxazepin-10(11H)-yl)benzamide], the results for the IC50 in assay [1] (Table 10) and in assay [2] (Table 10) were > 15 µM and 0.1 to 1 µM, respectively.

Turning to `O=C(NO)c1ccc(N2C[C@H]3C[C@@H]2CN3c2cc(C(F)(F)F)ccn2)cc1` [N-hydroxy-4-((1R,4R)-5-(4-(trifluoromethyl)pyridin-2-yl)-2,5-diazabicyclo[2.2.1]heptan-2-yl)benzamide], the IC50 lay in the range of 5 to 15 µM in assay [1] (Table 9) and 1 to 10 µM in assay [2] (Table 9).

On to `Cc1cccc(N2C[C@H]3C[C@@H]2CN3c2ccc(C(=O)NO)cc2)c1` [N-hydroxy-4-((1R,4R)-5-m-tolyl-2,5-diazabicyclo[2.2.1]heptan-2-yl)benzamide], for which the IC50 in assay [1] (Table 9) lay within 1 to 5 µM; in assay [2] (Table 9) it was 0.1 to 1 µM.

Take `O=C(NO)c1ccc(N2C[C@@H]3C[C@H]2CN3c2cccc(C(F)(F)F)c2)cc1` [N-hydroxy-4-((1S,4S)-5-(3-(trifluoromethyl)phenyl)-2,5-diazabicyclo[2.2.1]heptan-2-yl)benzamide]: the values for the IC50 in assay [1] (Table 9) and in assay [2] (Table 9) were 1 to 5 µM and 0.1 to 1 µM, respectively.

With `O=C(NO)c1ccc(N2C[C@@H]3C[C@H]2CN3c2cc(C(F)(F)F)ccn2)cc1` [N-hydroxy-4-((1S,4S)-5-(4-(trifluoromethyl)pyridin-2-yl)-2,5-diazabicyclo[2.2.1]heptan-2-yl)benzamide], the IC50 in assay [1] (Table 9) was in the range of 1 to 5 µM; in assay [2] (Table 9), 0.1 to 1 µM.

On to `Cc1ccc(N2C[C@@H]3C[C@H]2CN3c2ccc(C(=O)NO)cc2)cc1` [N-hydroxy-4-((1S,4S)-5-p-tolyl-2,5-diazabicyclo[2.2.1]heptan-2-yl)benzamide], for which the IC50 lay within 1 to 5 µM in assay [1] (Table 9) and 0.1 to 1 µM in assay [2] (Table 9).

As for `O=C(NO)c1ccc(CN2C(=O)c3ccccc3CCc3ccccc32)cc1` [N-hydroxy-4-((6-oxo-11,12-dihydrodibenzo[b,f]azocin-5(6H)-yl)methyl)benzamide], the values for the IC50 in assay [1] (Table 10) and in assay [2] (Table 10) were 1 to 5 µM and 0.1 to 1 µM, respectively.

Turning to `O=C(NO)c1ccc(Cn2c(=O)c3ccccc3c3ccccc32)cc1` [N-hydroxy-4-((6-oxophenanthridin-5(6H)-yl)methyl)benzamide], the values for the IC50 in assay [1] (Table 10) and in assay [2] (Table 10) were < 1 µM and < 0.05 µM, respectively.

Take `O=C(NO)c1ccc(CN2C(=O)c3ccccc3Oc3ccccc32)cc1` [N-hydroxy-4-((11-oxodibenzo[b,f][1,4]oxazepin-10(11H)-yl)methyl)benzamide]: the values for the IC50 in assay [1] (Table 10) and in assay [2] (Table 10) were < 1 µM and < 0.05 µM, respectively.

On to `O=C(NO)c1cnc(N2C[C@@H]3C[C@H]2CN3c2cccc(C(F)(F)F)c2)cn1` [N-hydroxy-5-((1S,4S)-5-(3-(trifluoromethyl)phenyl)-2,5-diazabicyclo[2.2.1]heptan-2-yl)pyrazine-2-carboxamide], for which the IC50 is 5 to 15 µM in assay [1] (Table 9) and 0.1 to 1 µM in assay [2] (Table 9).

On to `Cc1ccc(N2CC3CC2CN3c2ccc(C(=O)NO)cn2)cc1` (stereo not drawn) [N-hydroxy-6-(5-p-tolyl-2,5-diazabicyclo[2.2.1]heptan-2-yl)nicotinamide], for which the IC50 in assay [1] (Table 9) was < 1 µM; in assay [2] (Table 9) it was < 0.05 µM.

In the case of `O=C(CCCCCN1C(=O)c2ccccc2Oc2ccccc21)NO` [N-hydroxy-6-(11-oxodibenzo[b,f][1,4]oxazepin-10(11H)-yl)hexanamide], the IC50 in assay [1] (Table 10) is < 1 µM; in assay [2] (Table 10) it was < 0.05 µM.
